According to patent US10907159B2, “Methods of treating cancer by inhibition of DNA repair proteins using antisense based therapies” (SARISSA INC., priority 2015, dated 2021):
Entries after “also recorded” stand apart in the source; their conditions may differ.

How the values were obtained:
[1] = system: HK-2 kidney proximal tubule epithelial cells; test: Cell proliferation assay, ASO transfection then drug (cell counting); assay type: cell-based, human; conditions: FIG. 52
Procedure: FIG. […] Proliferation was determined by cell counting 96 hours post-transfection (*p<0.05).
(§1) Four hours post-transfection, cells were seeded into 6 well dishes in appropriate experimental groups. […] Ninety-six hours post transfection, cells were collected and counted (Coulter Particle Counter). Proliferation was determined based on initial cell density and calculated as a percentage of ASO+vehicle treated cells.

[2] = system: EP156T primary prostate epithelial cells; test: Veliparib after BR1 pretreatment; assay type: cell-based; conditions: FIG. 37
SKOV-3 cells = test: Cell proliferation assay, ASO transfection and/or drug (cell counting); assay type: cell-based, human; conditions: FIG. 49
Procedure: FIG. 24 illustrates that BRCA2 inhibition sensitizes ovarian cancer and breast cancer cell lines to olaparib treatment. SKOV-3 (A) and CaOV3 (B) cells were transfected with control ASO (•) or BRCA2 ASO (∘) and then treated with three different concentrations of olaparib. Proliferation was determined by cell counting 96 hours post-transfection (*p<0.05). C: BRCA2 mRNA levels were measured by qPCR 24 hours following BRCA2 ASO transfection in SKOV-3, CaOV3, 211 H and H2052 cell lines.
E: SKOV-3 cells were transfected with control or BRCA2 ASO and then treated with olaparib 24 hours post transfection. Ninety-six hours post transfection, cells were counted, plated, and re-transfected with control ASO or BRCA2 ASO and re-treated with olaparib. Cell counts were performed 96 hours post transfection (*p<0.05). […]
A: BRCA2-wild type SKOV-3 cells (black bars), […] MCF-7 cells (white bars), and BRCA2-mutated CAPAN-1 cells (grey bars) were treated simultaneously but separately with BRCA2 ASO (20 nM). […] Ninety-six hours post-transfection, cells were counted and proliferation determined (% of proliferation after control ASO treatment).
C: SKOV-3, MCF-7 and CAPAN-1 cells were treated with two different concentrations of olaparib for 96 hours. After drug treatment they were counted and proliferation was determined as a percent of that of vehicle-treated cells. […]

MDA-MB-231 cells = test: Cell proliferation assay, ASO transfection then drug (cell counting); assay type: cell-based, human; conditions: FIG. 49
Procedure: as §1

CAPAN-1 cells = test: Cell proliferation assay, ASO and/or drug (cell counting); assay type: cell-based, human; conditions: CAPAN-1 with mutated, non-functional BRCA2; FIG. 52
Procedure: A: BRCA2-wild type SKOV-3 cells (black bars), […] MCF-7 cells (white bars), and BRCA2-mutated CAPAN-1 cells (grey bars) were treated simultaneously but separately with BRCA2 ASO (20 nM). Due to differing growth medium requirements and to avoid fluorescent label-induced changes in drug sensitivity, cells were not co-cultured. They were treated independently, at the same time with the same materials. Ninety-six hours post-transfection, cells were counted and proliferation determined (% of proliferation after control ASO treatment).
C: SKOV-3, MCF-7 and CAPAN-1 cells were treated with two different concentrations of olaparib for 96 hours. After drug treatment they were counted and proliferation was determined as a percent of that of vehicle-treated cells.
Four hours post-transfection, cells were seeded into 6 well dishes in appropriate experimental groups. Twenty-four hours post transfection, cells were treated with olaparib (Selleckchem) at three concentrations. Ninety-six hours post transfection, cells were collected and counted (Coulter Particle Counter). Proliferation was determined based on initial cell density and calculated as a percentage of ASO+vehicle treated cells.

A549b cells = test: Proliferation of A549b cells after OLIGO/siRNA transfection (cell counting); assay type: cell-based, human
Procedure: Cultured cell lines were maintained in minimum essential medium a with nucleosides plus 10% fetal bovine serum and penicillin (50 units/mL)/streptomycin (50 mg/L) (growth medium). Cultures were incubated in a humidified atmosphere of 5% CO2 at 37° C. Cultured cell lines were maintained and cytotoxicity assays conducted as described previously (3). Rapidly proliferating cells were utilized for establishing cultures of experimental cells, which were allowed to plate overnight in 25-cm^2 flasks prior to manipulation. An established cell line of non-small-cell lung carcinoma (NSCLC), A549b, which was propagated by serial dilution from a single cell of an A549 parent cell line, was used for the establishment of antisense activity of oligonucleotides. This cell line proliferates with a mean generation time of approximately 20 hours, and is capable of forming tumours in immunodeficient mice with a take rate of greater than 90%. Therefore, this cell line is a good model system that can be used in both in vitro and in vivo experiments to test the activity of OLIGOs.
OLIGOs were introduced into cells with the use of Lipofectamine 2000 (LFA2K) (Invitrogen, Burlington, Ontario, Canada). OLIGOs were mixed with LFA2K at a ratio of 0.2 μg/ml per 10 nM OLIGO. The mixture was prepared at 11× the final concentration to which cells were exposed, so that 200 μL was added to 2 mL of medium in which cells were plated. As controls, cells were exposed to medium alone (no treatment), LFA2K alone at concentrations equivalent to those used in combination with OLIGOs (in some experiments only the maximum LFA2K concentration was used as a control), or OLIGO having no complementarity with any human mRNA. The OLIGO/LFA2K mixtures were then incubated at room temperature for 20 minutes, according to instructions supplied with the LFA2K, followed by addition of the OLIGOs to the cell medium. The OLIGO/LFA2K mix was then incubated (37° C.) on the cells for 4 hours, after which a second volume of medium was added. Cells were then incubated for 20 hours. Following this incubation, the OLIGO-containing medium was replaced with drug-free medium (i.e. medium without OLIGOs) and the cells were incubated for an additional 4 days. Following the 4-day incubation, the proliferation of the treated cells (fold-increase in cell number) was calculated as a percentage of that of control cells. Cell numbers were enumerated on an electronic particle counter (Beckman Coulter, Mississauga, ON). For the purpose of determining the anti-proliferative effect of antisense OLIGOs, the proliferation of cells treated with antisense OLIGOs was calculated as a percent of that of cells treated with an equivalent concentration of non-complementary control OLIGO (in this case OLIGO 32) mixed with an equivalent amount of LFA2K.
OLIGO-containing medium was removed and replaced with fresh medium. Cells were incubated for 4 days, at which time cell number was counted. Proliferation was calculated as a percent of non-targeting OLIGO-treated controls.
Cells were incubated for 4 days, at which time cell number was counted. Proliferation was calculated as a percent of controls.

In the case of “5′-guaucuCTTGACGTuccuua-3′ (GUAUCUCTTGACGTUCCUUA; gapmer, lower-case wings modified, type not given here) [BR1]”, the “effect on antiproliferative activity of cisplatin” value (from here on “effect … of cisplatin”) [1] is reported as “no effect on the antiproliferative activity of cisplatin”, the “enhancement of veliparib” value [2] is reported as “little or not at all” and the “effect … of cisplatin” value (SKOV-3 cells) is reported as “enhances the antiproliferative activity of cisplatin”. For the same substance, the “effect … of cisplatin” value (MDA-MB-231 cells) was “enhances the antiproliferative activity of cisplatin”, the “effect … of cisplatin” value (CAPAN-1 cells) was “no effect on the antiproliferative activity of cisplatin” and the “anti-proliferative effect as single agent” value (A549b cells; A549/A549b cells, 4 h transfection, counted after 4 d, vs non-targeting control OLIGO) was “inhibited proliferation on its own; also recorded: greater inhibition as a single agent; also recorded: inhibit proliferation of human non-small cell lung cancer A549 cells in a concentration-dependent manner”. The “inhibit proliferation of A549b cells” value (A549b cells; single agent, mixed with 0.2 μg/mL LFA2K, compared with control OLIGO 32, FIG. 1) was “over 50%”.
